Experimental data taken from ChEMBL document CHEMBL2440009, “Discovery of GSK2656157: An Optimized PERK Inhibitor Selected for Preclinical Development” (ACS Med Chem Lett, 2013).
pIC50: −log10 of the molar value. Each block holds one molecule with its values, some of them ahead of it.

Tests used:
[1] = biological target: T1, Eukaryotic translation initiation factor 2-alpha kinase 3 (Homo sapiens, UniProt Q9NZJ5); assay: Inhibition of GST-tagged PERK cytoplasmic domain (536 to 1116) (unknown origin) assessed as biotinylated His6-tagged EIF2alpha phosphorylation preincubated for 30 mins followed by ATP and eIF2alpha addition measured after 1 hr by HTRF assay
T1 sequence (Q9NZJ5 whole entry): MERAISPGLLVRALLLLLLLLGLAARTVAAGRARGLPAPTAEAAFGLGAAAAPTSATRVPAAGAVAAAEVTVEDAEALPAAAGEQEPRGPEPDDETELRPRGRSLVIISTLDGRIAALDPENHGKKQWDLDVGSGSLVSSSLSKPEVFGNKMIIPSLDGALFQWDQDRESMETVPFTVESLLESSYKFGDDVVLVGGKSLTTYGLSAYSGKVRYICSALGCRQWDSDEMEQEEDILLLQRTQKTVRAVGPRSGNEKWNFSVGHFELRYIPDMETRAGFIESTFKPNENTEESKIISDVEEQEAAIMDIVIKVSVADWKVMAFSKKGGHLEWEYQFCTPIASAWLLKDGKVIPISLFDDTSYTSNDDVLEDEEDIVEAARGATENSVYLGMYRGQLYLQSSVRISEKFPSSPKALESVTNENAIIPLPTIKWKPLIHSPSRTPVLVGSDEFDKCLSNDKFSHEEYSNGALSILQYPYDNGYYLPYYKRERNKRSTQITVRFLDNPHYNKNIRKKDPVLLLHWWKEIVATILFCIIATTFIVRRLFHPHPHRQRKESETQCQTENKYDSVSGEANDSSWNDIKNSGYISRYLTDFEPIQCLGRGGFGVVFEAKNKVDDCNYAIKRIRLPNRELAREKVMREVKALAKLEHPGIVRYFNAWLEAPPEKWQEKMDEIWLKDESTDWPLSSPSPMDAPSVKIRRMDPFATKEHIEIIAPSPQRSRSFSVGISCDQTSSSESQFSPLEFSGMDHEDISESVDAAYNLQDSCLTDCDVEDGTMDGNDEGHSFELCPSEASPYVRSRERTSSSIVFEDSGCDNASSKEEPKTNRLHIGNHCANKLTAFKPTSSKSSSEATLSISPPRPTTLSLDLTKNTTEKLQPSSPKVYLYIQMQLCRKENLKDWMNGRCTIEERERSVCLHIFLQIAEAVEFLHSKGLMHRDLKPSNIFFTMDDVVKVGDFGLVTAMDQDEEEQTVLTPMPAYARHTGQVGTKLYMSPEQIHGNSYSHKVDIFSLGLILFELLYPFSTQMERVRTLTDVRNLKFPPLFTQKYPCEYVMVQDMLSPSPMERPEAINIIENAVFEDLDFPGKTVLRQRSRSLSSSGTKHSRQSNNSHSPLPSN

[2] = biological target: T1, Eukaryotic translation initiation factor 2-alpha kinase 3; assay: Inhibition of thapsigargin-induced autophosphorylation of PERK in human A549 cells preincubated for 1 hr followed by thapsigargin-induction measured after 1 hr by Western blotting analysis; format: cell-based
[3] = Blood clearance in Sprague-Dawley rat at 2.2 mg/kg, iv by LC-MS/MS analysis; format: ADME, organism-based; parameters: dose 2.2 mg/kg, route intravenous; conditions: whole blood
Cytochrome P450 2D6 [4] = biological target: T2, Cytochrome P450 2D6 (Homo sapiens, UniProt P10635); assay: Inhibition of CYP2D6 in human liver microsomes using dextromethorphan as substrate after 5 to 60 mins by LC-MS/MS analysis; format: ADME, Microsome
T2 sequence (P10635 whole entry): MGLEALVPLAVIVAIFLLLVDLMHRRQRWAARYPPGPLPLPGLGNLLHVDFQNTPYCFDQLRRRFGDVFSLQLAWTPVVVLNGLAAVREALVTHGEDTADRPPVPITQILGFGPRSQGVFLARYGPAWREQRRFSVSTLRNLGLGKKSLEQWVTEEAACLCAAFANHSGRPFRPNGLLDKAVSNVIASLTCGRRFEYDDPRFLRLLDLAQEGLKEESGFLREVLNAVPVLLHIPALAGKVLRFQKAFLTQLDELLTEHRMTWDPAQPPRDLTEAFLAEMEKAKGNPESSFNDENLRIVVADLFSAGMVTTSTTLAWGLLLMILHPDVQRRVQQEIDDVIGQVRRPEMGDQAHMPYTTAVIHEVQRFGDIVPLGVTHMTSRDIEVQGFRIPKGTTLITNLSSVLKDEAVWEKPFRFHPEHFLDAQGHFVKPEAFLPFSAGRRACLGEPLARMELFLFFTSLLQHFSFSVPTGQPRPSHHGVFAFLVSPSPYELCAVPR

Cytochrome P450 1A2 = biological target: T3, Cytochrome P450 1A2 (Homo sapiens, UniProt P05177); assay: Inhibition of CYP1A2 in human liver microsomes using phenacetin as substrate after 5 to 60 mins by LC-MS/MS analysis; format: ADME, Microsome
T3 sequence (P05177 whole entry): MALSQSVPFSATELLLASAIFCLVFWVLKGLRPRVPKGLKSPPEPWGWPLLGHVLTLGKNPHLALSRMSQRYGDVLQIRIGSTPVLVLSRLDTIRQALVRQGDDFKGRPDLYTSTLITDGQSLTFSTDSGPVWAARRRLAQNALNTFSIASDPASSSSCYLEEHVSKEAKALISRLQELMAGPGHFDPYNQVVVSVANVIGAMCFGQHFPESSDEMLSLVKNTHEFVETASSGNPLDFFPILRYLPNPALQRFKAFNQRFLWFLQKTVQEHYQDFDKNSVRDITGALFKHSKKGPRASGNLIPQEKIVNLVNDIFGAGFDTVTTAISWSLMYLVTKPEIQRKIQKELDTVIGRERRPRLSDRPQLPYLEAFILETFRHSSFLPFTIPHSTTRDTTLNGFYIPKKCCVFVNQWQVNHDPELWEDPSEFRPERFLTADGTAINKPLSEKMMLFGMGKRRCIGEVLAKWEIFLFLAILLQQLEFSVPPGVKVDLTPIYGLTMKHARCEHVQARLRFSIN

Cytochrome P450 2C19 = Cytochrome P450 2C19 (Homo sapiens, UniProt P33261); assay: Inhibition of CYP2C19 in human liver microsomes using mephenytoin as substrate after 5 to 60 mins by LC-MS/MS analysis; format: ADME, Microsome
Chain of Cytochrome P450 2C19 (P33261 whole entry): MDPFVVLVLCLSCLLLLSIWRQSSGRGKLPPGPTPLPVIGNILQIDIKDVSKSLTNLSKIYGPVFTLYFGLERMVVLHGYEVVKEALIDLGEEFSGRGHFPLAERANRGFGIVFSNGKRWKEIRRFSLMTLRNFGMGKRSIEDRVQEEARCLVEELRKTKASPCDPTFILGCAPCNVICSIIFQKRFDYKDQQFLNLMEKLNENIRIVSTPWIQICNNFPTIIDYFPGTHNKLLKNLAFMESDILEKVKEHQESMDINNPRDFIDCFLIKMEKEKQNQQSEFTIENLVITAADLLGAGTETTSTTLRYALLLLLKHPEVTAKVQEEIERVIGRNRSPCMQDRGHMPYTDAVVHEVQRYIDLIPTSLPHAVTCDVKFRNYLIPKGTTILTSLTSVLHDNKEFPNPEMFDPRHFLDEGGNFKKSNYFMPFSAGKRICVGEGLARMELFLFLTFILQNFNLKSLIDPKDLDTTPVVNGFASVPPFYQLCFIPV

Cytochrome P450 2C9 = Cytochrome P450 2C9 (Homo sapiens, UniProt P11712); assay: Inhibition of CYP2C9 in human liver microsomes using diclofenac as substrate after 5 to 60 mins by LC-MS/MS analysis; format: ADME, Microsome
Chain of Cytochrome P450 2C9 (P11712 whole entry): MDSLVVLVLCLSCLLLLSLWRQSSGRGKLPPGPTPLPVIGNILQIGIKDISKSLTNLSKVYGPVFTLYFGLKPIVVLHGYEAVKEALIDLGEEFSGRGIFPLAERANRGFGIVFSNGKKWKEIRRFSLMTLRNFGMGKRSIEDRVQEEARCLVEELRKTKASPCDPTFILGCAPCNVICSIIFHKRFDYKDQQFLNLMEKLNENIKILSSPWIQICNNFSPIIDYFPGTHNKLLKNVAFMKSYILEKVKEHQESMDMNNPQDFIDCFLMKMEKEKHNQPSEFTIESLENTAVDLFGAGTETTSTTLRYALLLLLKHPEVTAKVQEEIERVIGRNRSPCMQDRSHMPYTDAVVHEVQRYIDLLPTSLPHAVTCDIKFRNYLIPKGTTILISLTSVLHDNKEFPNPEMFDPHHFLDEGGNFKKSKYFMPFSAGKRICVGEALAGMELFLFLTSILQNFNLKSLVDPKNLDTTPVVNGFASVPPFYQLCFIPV

Cytochrome P450 2C8 = biological target: T4, Cytochrome P450 2C8 (Homo sapiens, UniProt P10632); assay: Inhibition of CYP2C8 in human liver microsomes using paclitaxel as substrate after 5 to 60 mins by LC-MS/MS analysis; format: ADME, Microsome
T4 sequence (P10632 whole entry): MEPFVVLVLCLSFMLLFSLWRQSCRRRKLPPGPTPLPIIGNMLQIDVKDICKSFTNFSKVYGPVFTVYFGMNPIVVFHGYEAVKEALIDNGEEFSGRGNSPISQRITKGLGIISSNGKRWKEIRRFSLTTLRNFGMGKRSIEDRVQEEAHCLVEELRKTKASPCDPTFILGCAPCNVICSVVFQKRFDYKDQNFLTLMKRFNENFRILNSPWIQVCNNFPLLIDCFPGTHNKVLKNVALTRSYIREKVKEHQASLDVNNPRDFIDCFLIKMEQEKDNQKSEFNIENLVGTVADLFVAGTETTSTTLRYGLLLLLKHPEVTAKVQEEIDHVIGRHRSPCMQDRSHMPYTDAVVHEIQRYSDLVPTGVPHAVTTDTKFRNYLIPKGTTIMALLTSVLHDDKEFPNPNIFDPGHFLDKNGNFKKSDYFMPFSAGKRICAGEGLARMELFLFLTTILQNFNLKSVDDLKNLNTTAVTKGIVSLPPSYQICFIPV

[5] = AUC (0 to infinity) in Sprague-Dawley rat at 4.3 mg/kg, po by LC-MS/MS analysis; format: ADME, organism-based; parameters: time infinity, dose 4.3 mg/kg, route oral; conditions: plasma
[6] = Blood clearance in beagle dog at 2.9 mg/kg, iv by LC-MS/MS analysis; format: ADME, organism-based, Canis lupus familiaris; parameters: dose 2.9 mg/kg, route intravenous; conditions: whole blood
[7] = AUC (0 to infinity) in beagle dog at 5.2 mg/kg, po by LC-MS/MS analysis; format: ADME, organism-based, Canis lupus familiaris; parameters: time infinity, dose 5.2 mg/kg, route oral; conditions: plasma
[8] = Half life in beagle dog at 2.9 mg/kg, iv by LC-MS/MS analysis; format: ADME, organism-based, Canis lupus familiaris; parameters: dose 2.9 mg/kg, route intravenous; conditions: in vivo
[9] = AUC (0 to infinity) in Sprague-Dawley rat at 2.2 mg/kg, iv by LC-MS/MS analysis; format: ADME, organism-based; parameters: time infinity, dose 2.2 mg/kg, route intravenous; conditions: plasma
[10] = Volume of distribution at steady state in CD1 mouse at 2 mg/kg, iv by LC-MS/MS analysis; format: ADME, organism-based; parameters: dose 2 mg/kg, route intravenous; conditions: in vivo, read-out: Vdss
[11] = biological target: Interferon-induced, double-stranded RNA-activated protein kinase (Homo sapiens, UniProt P19525); assay: Inhibition of PKR (unknown origin) assessed as EIF2AK2 phosphorylation
Chain of Interferon-induced, double-stranded RNA-activated protein kinase (P19525 whole entry): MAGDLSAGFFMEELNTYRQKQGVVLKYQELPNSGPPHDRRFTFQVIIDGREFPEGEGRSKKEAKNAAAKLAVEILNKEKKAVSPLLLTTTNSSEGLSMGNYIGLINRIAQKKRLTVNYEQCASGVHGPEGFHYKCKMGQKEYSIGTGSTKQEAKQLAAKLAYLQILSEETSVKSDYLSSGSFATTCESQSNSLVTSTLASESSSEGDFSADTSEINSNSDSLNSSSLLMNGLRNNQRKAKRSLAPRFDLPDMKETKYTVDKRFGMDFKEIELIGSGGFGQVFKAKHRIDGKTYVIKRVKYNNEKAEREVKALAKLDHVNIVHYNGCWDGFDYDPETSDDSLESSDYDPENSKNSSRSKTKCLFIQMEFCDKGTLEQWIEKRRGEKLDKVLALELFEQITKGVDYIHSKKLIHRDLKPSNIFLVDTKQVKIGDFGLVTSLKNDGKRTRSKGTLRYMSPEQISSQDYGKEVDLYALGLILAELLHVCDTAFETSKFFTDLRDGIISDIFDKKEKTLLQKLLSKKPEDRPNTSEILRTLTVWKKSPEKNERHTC

Cytochrome P450 2D6 [12] = biological target: T2, Cytochrome P450 2D6; assay: Inhibition of CYP2D6 in human liver microsomes using bufuralol as substrate after 5 to 60 mins by LC-MS/MS analysis; format: ADME, Microsome
[13] = Half life in CD1 mouse at 2 mg/kg, iv by LC-MS/MS analysis; format: ADME, organism-based; parameters: dose 2 mg/kg, route intravenous; conditions: in vivo
[14] = Oral bioavailability in Sprague-Dawley rat at 4.3 mg/kg by LC-MS/MS analysis; format: ADME, organism-based; conditions: in vivo
eIF-2-alpha kinase GCN2 = eIF-2-alpha kinase GCN2 (Homo sapiens, UniProt Q9P2K8); assay: Inhibition of GCN2 (unknown origin) assessed as EIF2AK4 phosphorylation
Chain of eIF-2-alpha kinase GCN2 (Q9P2K8 whole entry): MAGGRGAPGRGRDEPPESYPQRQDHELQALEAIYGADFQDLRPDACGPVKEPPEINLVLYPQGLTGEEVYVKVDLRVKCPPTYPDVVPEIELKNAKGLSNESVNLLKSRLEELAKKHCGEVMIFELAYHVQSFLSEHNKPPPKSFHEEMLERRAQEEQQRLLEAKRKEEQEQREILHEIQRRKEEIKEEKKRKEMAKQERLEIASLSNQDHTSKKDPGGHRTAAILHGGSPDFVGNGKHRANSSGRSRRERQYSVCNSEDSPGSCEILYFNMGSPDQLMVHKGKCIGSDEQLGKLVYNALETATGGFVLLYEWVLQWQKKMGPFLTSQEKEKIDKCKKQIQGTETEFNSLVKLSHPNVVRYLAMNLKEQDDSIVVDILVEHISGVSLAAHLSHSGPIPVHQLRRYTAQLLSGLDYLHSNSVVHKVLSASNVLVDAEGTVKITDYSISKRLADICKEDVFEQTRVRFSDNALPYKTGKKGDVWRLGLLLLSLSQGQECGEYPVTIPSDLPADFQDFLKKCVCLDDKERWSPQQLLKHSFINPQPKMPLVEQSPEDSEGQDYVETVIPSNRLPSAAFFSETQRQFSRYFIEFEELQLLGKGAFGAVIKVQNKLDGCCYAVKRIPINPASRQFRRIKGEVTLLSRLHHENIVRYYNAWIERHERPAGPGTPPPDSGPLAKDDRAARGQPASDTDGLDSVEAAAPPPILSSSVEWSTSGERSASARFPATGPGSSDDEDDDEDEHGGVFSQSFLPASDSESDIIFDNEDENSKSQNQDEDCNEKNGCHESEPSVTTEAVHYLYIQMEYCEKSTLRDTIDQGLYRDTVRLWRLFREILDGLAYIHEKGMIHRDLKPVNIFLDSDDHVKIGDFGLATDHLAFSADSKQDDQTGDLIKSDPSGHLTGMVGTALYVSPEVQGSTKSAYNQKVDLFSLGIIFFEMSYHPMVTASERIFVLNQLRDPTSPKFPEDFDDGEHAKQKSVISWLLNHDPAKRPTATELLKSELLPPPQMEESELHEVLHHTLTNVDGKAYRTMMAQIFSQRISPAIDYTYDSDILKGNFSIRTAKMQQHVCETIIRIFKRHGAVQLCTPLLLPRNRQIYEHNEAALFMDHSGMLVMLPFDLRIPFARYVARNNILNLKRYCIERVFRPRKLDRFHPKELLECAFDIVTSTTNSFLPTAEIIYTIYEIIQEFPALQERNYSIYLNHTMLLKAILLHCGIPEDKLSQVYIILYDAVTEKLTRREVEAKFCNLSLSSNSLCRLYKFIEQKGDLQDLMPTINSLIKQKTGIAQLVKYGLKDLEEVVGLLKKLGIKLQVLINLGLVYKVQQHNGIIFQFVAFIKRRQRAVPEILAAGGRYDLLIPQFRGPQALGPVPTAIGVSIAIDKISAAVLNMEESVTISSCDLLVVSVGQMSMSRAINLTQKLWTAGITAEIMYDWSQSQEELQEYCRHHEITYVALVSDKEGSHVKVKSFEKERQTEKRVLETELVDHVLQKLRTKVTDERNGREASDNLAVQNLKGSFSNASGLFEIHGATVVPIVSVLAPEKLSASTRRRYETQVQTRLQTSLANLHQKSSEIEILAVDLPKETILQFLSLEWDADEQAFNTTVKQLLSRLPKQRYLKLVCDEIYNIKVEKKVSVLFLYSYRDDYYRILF

[15] = Oral bioavailability in CD1 mouse at 13.4 mg/kg by LC-MS/MS analysis; format: ADME, organism-based; conditions: in vivo
[16] = AUC (0 to infinity) in beagle dog at 2.9 mg/kg, iv by LC-MS/MS analysis; format: ADME, organism-based, Canis lupus familiaris; parameters: time infinity, dose 2.9 mg/kg, route intravenous; conditions: plasma
[17] = Oral bioavailability in beagle dog at 5.2 mg/kg by LC-MS/MS analysis; format: ADME, organism-based, Canis lupus familiaris; conditions: in vivo
[18] = Volume of distribution at steady state in beagle dog at 2.9 mg/kg, iv by LC-MS/MS analysis; format: ADME, organism-based, Canis lupus familiaris; parameters: dose 2.9 mg/kg, route intravenous; conditions: in vivo, read-out: Vdss
[19] = AUC (0 to infinity) in CD1 mouse at 13.4 mg/kg, po by LC-MS/MS analysis; format: ADME, organism-based; parameters: time infinity, dose 13.4 mg/kg, route oral; conditions: plasma
[20] = Blood clearance in CD1 mouse at 2 mg/kg, iv by LC-MS/MS analysis; format: ADME, organism-based; parameters: dose 2 mg/kg, route intravenous; conditions: whole blood
[21] = Half life in Sprague-Dawley rat at 2.2 mg/kg, iv by LC-MS/MS analysis; format: ADME, organism-based; parameters: dose 2.2 mg/kg, route intravenous; conditions: in vivo
[22] = biological target: Eukaryotic translation initiation factor 2-alpha kinase 1 (Homo sapiens, UniProt Q9BQI3); assay: Inhibition of HRI (unknown origin) assessed as EIF2AK1 phosphorylation
Chain of Eukaryotic translation initiation factor 2-alpha kinase 1 (Q9BQI3 whole entry): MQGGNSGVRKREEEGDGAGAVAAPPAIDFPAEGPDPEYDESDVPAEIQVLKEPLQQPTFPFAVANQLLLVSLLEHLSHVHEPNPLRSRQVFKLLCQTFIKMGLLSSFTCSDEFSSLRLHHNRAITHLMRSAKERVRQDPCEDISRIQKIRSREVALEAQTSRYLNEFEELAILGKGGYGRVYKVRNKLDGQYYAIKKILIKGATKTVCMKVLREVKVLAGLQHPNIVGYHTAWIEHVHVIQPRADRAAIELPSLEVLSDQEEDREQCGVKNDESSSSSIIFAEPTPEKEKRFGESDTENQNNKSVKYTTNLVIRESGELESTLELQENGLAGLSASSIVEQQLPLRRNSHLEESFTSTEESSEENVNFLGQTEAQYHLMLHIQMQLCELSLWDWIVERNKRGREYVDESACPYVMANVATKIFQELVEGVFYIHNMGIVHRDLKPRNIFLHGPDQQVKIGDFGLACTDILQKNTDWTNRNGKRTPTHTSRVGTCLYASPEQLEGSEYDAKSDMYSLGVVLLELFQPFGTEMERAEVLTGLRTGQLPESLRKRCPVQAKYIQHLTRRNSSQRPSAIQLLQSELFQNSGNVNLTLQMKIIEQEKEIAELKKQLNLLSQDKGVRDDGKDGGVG

[23] = Volume of distribution at steady state in Sprague-Dawley rat at 2.2 mg/kg, iv by LC-MS/MS analysis; format: ADME, organism-based; parameters: dose 2.2 mg/kg, route intravenous; conditions: in vivo, read-out: Vdss
[24] = AUC (0 to infinity) in CD1 mouse at 2 mg/kg, iv by LC-MS/MS analysis; format: ADME, organism-based; parameters: time infinity, dose 2 mg/kg, route intravenous; conditions: plasma

pIC50 [1]: 7.63
Compound: Cn1cc(-c2ccc3c(c2)CCN3C(=O)Cc2cccnc2)c2c(N)ncnc21

pIC50 [1]: 8.72
pIC50 [2]: 7.00
clearance [3]: 2.8 mL/min/kg
Compound: Cc1cc(C)n(CC(=O)N2CCc3cc(-c4cn(C)c5ncnc(N)c45)ccc32)n1

pIC50 [1]: 7.24
Compound: Cc1ccn(CC(=O)N2CCc3cc(-c4cn(C)c5ncnc(N)c45)ccc32)n1

The next lines start with the molecule.

Compound: Cn1cc(-c2ccc3c(c2)CCN3C(=O)Cc2cccc(C(F)(F)F)n2)c2c(N)ncnc21
pIC50 [1]: 9.30
pIC50 [2]: 7.52
clearance [3]: 12.8 mL/min/kg

Compound: Cn1cc(-c2ccc3c(c2)CCN3C(=O)Cc2cccc(C(F)(F)F)c2)c2c(N)ncnc21
pIC50 (Cytochrome P450 2D6 [4]): 4.64
pIC50 (Cytochrome P450 1A2): 4.68
pIC50 (Cytochrome P450 2C19): 5.15
pIC50 (Cytochrome P450 2C9): 5.35
clearance [3]: 21.5 mL/min/kg
pIC50 (Cytochrome P450 2C8): 6.05

Compound: Cc1cccc(CC(=O)N2CCc3c2ccc(-c2cn(C)c4ncnc(N)c24)c3F)n1
AUC(0-inf) [5]: 8020 ng·h/mL
clearance [6]: 15.5 mL/min/kg
AUC(0-inf) [7]: 6210 ng·h/mL
half-life [8]: 3.1 h
AUC(0-inf) [9]: 3920 ng·h/mL
Vd [10]: 0.72 L/kg
pIC50 [11]: 6.04
pIC50 [1]: 9.10
pIC50 (Cytochrome P450 2D6 [12]): < 4.60
half-life [13]: 1.25 h
bioavailability [14]: 100%
pIC50 (eIF-2-alpha kinase GCN2): 5.47
bioavailability [15]: 52%
pIC50 (Cytochrome P450 1A2): < 4.60
pIC50 [2]: 7.52
pIC50 (Cytochrome P450 2C19): < 4.60
AUC(0-inf) [16]: 3130 ng·h/mL
pIC50 (Cytochrome P450 2C9): 4.61
bioavailability [17]: 100%
Vd [18]: 2.8 L/kg
AUC(0-inf) [19]: 13400 ng·h/mL
clearance [3]: 9.5 mL/min/kg
clearance [20]: 10.5 mL/min/kg
half-life [21]: 1.4 h
pIC50 (Cytochrome P450 2C8): < 4.60
pIC50 [22]: 6.34
Vd [23]: 0.6 L/kg
AUC(0-inf) [24]: 3270 ng·h/mL
